The values that follow come from patent US20210030843A1, “COMPOSITION AND METHOD FOR REDUCING CHEMOTHERAPY-INDUCED NEUTROPENIA VIA THE ADMINISTRATION OF PLINABULIN AND A G-CSF AGENT” (BEYONDSPRING PHARMACEUTICALS, INC., priority 2018, published 2021).

Data set [1] has as its system neutropenia caused by chemotherapies. Nature of the data set: Animal model studies of chemotherapy-caused neutropenia. The format is in vivo. The following applies: docetaxel, cisplatin, adriamycin, cyclosphosphamide, topotecan, gemcitabine.
In data set [2] the test system is NSCLC patients (pts) with a measurable lesion. Nature of the data set: Phase 2 trial, addition of Plinabulin to Docetaxel in NSCLC patients. The conditions noted are these: human, in vivo.
In data set [3] the test system is patients with solid tumors receiving docetaxel myelosuppressive chemotherapy. Nature of the data set: Example 1: randomized, double blind study, plinabulin versus pegfilgrastim with docetaxel. It is filed as in vivo, human. The conditions noted are these: for change of neutrophil count through time (FIG. 1): after docetaxel 75 mg/m^2, pegfilgrastim 6 mg, plinabulin 5, 10, 20 mg/m^2. The procedure: A randomized, double blind study to evaluate duration of severe neutropenia with plinabulin versus pegfilgrastim in patients with solid tumors receiving docetaxel myelosuppressive chemotherapy was performed. Patients were randomly assigned to the following arms (with the respective sample sizes): Arm 1: Docetaxel (75 mg/m^2)+Pegfilgrastim (6 mg) (n=14); Arm 2: Docetaxel (75 mg/m^2)+Plinabulin (20 mg/m^2) (n=14); Arm 3: Docetaxel (75 mg/m^2)+Plinabulin (10 mg/m^2) (n=14); and Arm 4: Docetaxel (75 mg/m^2)+Plinabulin (5 mg/m^2) (n=13).

In data set [4] the test system is patients (docetaxel-induced neutropenia). The conditions noted are these: for proportion of patients with Grade 4 neutropenia: Cycle 1, docetaxel treatment alone vs addition of plinabulin to docetaxel, ANC <0.5×10^9/L, p<0.0003.
Data set [5] relates to Patients with solid tumors. Nature of the data set: Plinabulin monotherapy in patients with solid tumors, laboratory parameters. The format is in vivo, human. The following applies: in the absence of chemotherapy.
Data set [6] concerns patients. The following applies: Plinabulin.
Data set [7] has as its system patients. The following applies: G-CSF, cited from earlier work.
Data set [8] concerns patients. The conditions noted are these: most common adverse reactions; cited from earlier work.
Data set [9] relates to Patients with first line breast cancer receiving TAC. Nature of the data set: Example 2: Phase 2 open label study, plinabulin and pegfilgrastim after TAC. The format is in vivo, human. The conditions noted are these: pegfilgrastim 6 mg. The method, then:
A multicenter, randomized study, involving G-CSF and plinabulin was performed. The Phase 2 portion was randomized and open label. The decision to complete the Phase 2 portion of the study as open label was made to reduce the complexities of study conduct and to allow for the assessment, via QoL, of same-day plinabulin dosing (i.e on the day of chemotherapy dosing) versus next day dosing with G-CSF. Patients with first line breast cancer were enrolled in the study.
Patients received up to 4 cycles of a docetaxel/doxorubicin/cyclophosphamide based chemotherapy regimen, every 3 weeks (21 days). On Day 1 of Cycle 1, all patients receive docetaxel (75 mg/m^2), doxorubicin (50 mg/m^2), and cyclophosphamide (500 mg/m^2)-Taxotere, Adriamycin and cyclophosphamide (TAC).
During Cycles 2 to 4, the doxorubicin component may be omitted at the discretion of the investigator, i.e., TC can be administered instead of TAC.
The eligibility of all patients was determined during a 28-day screening period.
Phase 2 (Open Label): In Phase 2, patients were randomly assigned to one of the treatment arms, with the arm designation and planned intervention as shown in Table 2.
Patients have been randomized to receive TAC (or TC for Cycles 2 to 4)+pegfilgrastim or a combination of plinabulin and pegfilgrastim in each of Arms 1, 2, 3, and 4.
In Phase 2 (Open Label), Cycles 1 to 4 consisted of TAC (or TC for Cycles 2 to 4) administered IV on Day 1, every 21 days. Patients in Arms 2 and 3 received a single dose of plinabulin over 30 minutes (±5 minutes), 30 minutes after the end of the TAC (or TC for Cycles 2 to 4) infusion on Day 1. On Day 2 of each cycle (≥24 hours after completing chemotherapy) patients in […] received a single dose of pegfilgrastim (6.0 mg) (subcutaneous injection) in an open label treatment.
Docetaxel: Docetaxel was administered at a dose of 75 mg/m2. Administration was carried out with a 1-hour IV infusion per institutional protocol at the dose prescribed by this clinical study protocol (75 mg/m2). Dexamethasone (16 mg per day administered as 8 mg twice daily, or as per institution standard) was given on the day before, the day of (Day 1), and the day following docetaxel infusion (Day 2).
Doxorubicin: Doxorubicin was administered at a dose of 50 mg/m2. Doxorubicin is potentially cardiotoxic. Risk for doxorubicin cardiotoxicity increases with the cumulative lifetime dose of doxorubicin. At the doxorubicin dose and schedule in this study, patients received a cumulative doxorubicin dose of […] of body surface area, below the threshold for symptomatic cardiac dysfunction. Patients were monitored, per institutional standard, for doxorubicin cardiotoxicity.
Cyclophosphamide: Cyclophosphamide was administered at a dose of 500 mg/m^2.
TAC Regimen: All patients received 3 week cycles of TAC chemotherapy. In each cycle, doxorubicin (50 mg/m2) given as a 15-minute IV infusion was administered first, followed immediately by cyclophosphamide (500 mg/m2) given as a 30-minute IV infusion, and then by docetaxel (75 mg/m2) administered as 1-hour IV infusion (the infusion times stated are approximate).

The mark [10] stands for this setting: Table 4, alone or with plinabulin 20 mg/m^2.
[11] abbreviates: cycle 1 after TAC, breast cancer, alone or with plinabulin 20 mg/m^2.

Where “and” joins values, the source holds several entries; their conditions need not be identical. Identical values can stand only once. Like-named read-outs stand apart in the source and are kept apart here. A value given as a limit tells only on which side of the number the result lay.

In the case of `CC(C)(C)c1[nH]cnc1/C=c1\[nH]c(=O)/c(=C/c2ccccc2)[nH]c1=O` [Plinabulin, (3Z,6Z)-3-Benzylidene-6-{[5-(2-methyl-2-propanyl)-1H-imidazol-4-yl]methylene}-2,5-piperazinedione], the “prevention of neutropenia caused by chemotherapies” value in data set [1] is “prevent neutropenia”. For the same molecule, the “Immune-Related AEs (IR-AEs)” value in data set [2] is reported as “without increasing”. The “change of neutrophil count through time (FIG. 1)” value in data set [3] is “started to rise again on day 10”. Besides, the “treating neutropenia induced by chemotherapeutic agent” value in data set [3] (docetaxel 75 mg/m^2) is on record as “effective”. Moreover, the “overshot of the ANC during recovery” value in data set [3] (in vivo) is “prevented”. Also, the “Grade 3 transient hypertension, patients” value in data set [4] (20 mg/m^2 plinabulin) was determined as 5%; in [4] (30 mg/m^2 plinabulin), 20%. Moreover, in [4], the “proportion of patients with Grade 4 neutropenia” value turned out to be 4.6%. The “clinical sequelae associated with docetaxel-induced neutropenia (sepsis, infections, hospitalizations, docetaxel dose reductions, G-CSF use)” value in data set [4] (human, in vivo) is “reduced”. In addition, the “bone pain, patients” value in data set [4] (patients receiving plinabulin) worked out at 4%. For the same molecule, the “changes in hematology or chemistry laboratory parameters” value in data set [5] is “did not experience any clinically significant deleterious changes”. In addition, the “Bone Pain (% of patients)” value in data set [6] was less than 4%. The “Hospitalization (% of patients)” value in data set [6] was determined as 6%.

As for `CC(=O)O[C@@]12CO[C@@H]1C[C@H](O)[C@@]1(C)C(=O)[C@H](O)C3=C(C)[C@@H](OC(=O)[C@H](O)[C@@H](NC(=O)OC(C)(C)C)c4ccccc4)C[C@@](O)([C@@H](OC(=O)c4ccccc4)[C@H]21)C3(C)C` [docetaxel, reference compound], the “proportion of patients with Grade 4 neutropenia” value in data set [4] is recorded as 33.3%.

B1: G-CSF: Granulocyte-colony stimulating factor: compounds or factors that stimulate proliferation, differentiation, commitment and end cell functional activation of granulocytes (protein, UniProt P09919 31-207, looked up)
Granulocyte …: TPLGPASSLPQSFLLKCLEQVRKIQGDGAALQEKLVSECATYKLCHPEELVLLGHSLGIPWAPLSSCPSQALQLAGCLSQLHSGLFLYQGLLQALEGISPELGPTLDTLQLDVADFATTIWQQMEELGMAPALQPTQGAMPAFASAFQRRAGGVLVASHLQSFLEVSYRVLRHLAQP
Regarding B1, the “Hospitalization (% of patients)” value in [7] is given as 20%. Further, in data set [7] (footnote mark 1), the “Bone Pain (% of patients)” value is given as more than 20%^1.

B2: pegfilgrastim: colony-stimulating factor that acts on hematopoietic cells by binding to specific cell surface receptors (protein, chains of the INN, looked up)
chain: TPLGPASSLPQSFLLKCLEQVRKIQGDGAALQEKLCATYKLCHPEELVLLGHSLGIPWAPLSSCPSQALQLAGCLSQLHSGLFLYQGLLQALEGISPELGPTLDTLQLDVADFATTIWQQMEELGMAPALQPTQGAMPAFASAFQRRAGGVLVASHLQSFLEVSYRVLRHLAQP
modifications: PEG
With B2, in data set [3], the “change of neutrophil count through time (FIG. 1)” value is given as “began to drop after 10 days”. Also, in data set [8], the “bone pain, patients” value is reported as 31% and the “pain in an extremity, patients” value is on record as 9%. In [9] (setting [10]), the Anti-cancer result is reported as “No” and the “DSN (grade 3/4)” value was “Well over 1 day”. For the same molecule, in data set [9] (setting [11]), the “% neutropenia (grade 4)” value is 57% and > 50%; the “DSN (grade 3/4)” value came out at 1.4 ± 1.0; the “patients with NLR greater than 5 (FIG. 6)” value was 76%. For the same molecule, the “ANC nadir of median ANC (FIG. 2)” value in data set [9] (first 10 days of cycle 1, alone or with plinabulin 20 mg/m2) is reported as “within the grade 3/4 neutropenia range”. The “Median ANC Nadir” value in [9] (alone or with plinabulin 20 mg/m^2) is 0.47 10^9 cells/L.
